Measured values taken from the supplement of paper PMC10307832.

Columns and labels:
Assay in all cases: relative viability (nuclei count vs DMSO), 5 days (fraction); higher = more cells survive
[1] = tested on: LCLC-97TM1
Method in brief: (§1)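 One day after seeding in 1536-well plates, lung cancer cell lines were dosed by pin tool. Dosing was either single-drug or a fixed anchor-drug dose plus five library-drug doses (not always all listed) in √10 steps. After 5 days, nuclei were stained in one fix-and-stain step and counted on 4× images, and relative viability is the nuclei count of treated wells over that of vehicle wells, given as the median of duplicate plates.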

[2] = tested on: NCI-H1792
Method in brief: as §1

[3] = tested on: NCI-H1650
Method in brief: as §1

[4] = tested on: H3255
Method in brief: as §1

[5] = tested on: NCI-H661
Method in brief: as §1

[6] = tested on: A-427
Method in brief: as §1

[7] = tested on: NCI-H460
Method in brief: as §1

[8] = tested on: NCI-H1651
Method in brief: as §1

[9] = tested on: NCI-H441
Method in brief: as §1

[10] = tested on: NCI-H2023
Method in brief: as §1

[11] = tested on: LC-2-ad
Method in brief: as §1

[12] = tested on: NCI-H650
Method in brief: as §1

[13] = tested on: NCI-H520
Method in brief: as §1

[14] = tested on: 201T
Method in brief: as §1

[15] = tested on: NCI-H1944
Method in brief: as §1

[16] = tested on: PC-3 [JPC-3]
Method in brief: as §1

[17] = tested on: BEN
Method in brief: as §1

[18] = tested on: NCI-H596
Method in brief: as §1

[19] = tested on: CAL-12T
Method in brief: as §1

[20] = tested on: NCI-H2087
Method in brief: as §1

[21] = tested on: NCI-H1915
Method in brief: as §1

`NC(=O)Nc1cc(-c2cccc(F)c2)sc1C(=O)N[C@H]1CCCNC1` [AZD7762] + Nc1nc2[nH]cc(CCc3ccc(C(=O)N[C@@H](CCC(=O)O)C(=O)O)cc3)c2c(=O)[nH]1 [Pemetrexed] (partner 0.2 µM) was tested, and the relative viability ([1]; first compound 0.01 µM) was 0.187, the relative viability ([1]; first compound 0.03162 µM) was 0.165 and the relative viability ([1]; first compound 0.1 µM) was 0.17. It also gave a relative viability ([1]; first compound 0.3162 µM) of 0.139, a relative viability ([1]; first compound 1 µM) of 0.146 and a relative viability ([2]; first compound 0.01 µM) of 0.957. The relative viability ([2]; first compound 0.03162 µM) was 0.822, the relative viability ([2]; first compound 0.1 µM) was 0.844 and the relative viability ([2]; first compound 0.3162 µM) was 0.732. It also gave a relative viability ([2]; first compound 1 µM) of 0.421, a relative viability ([3]; first compound 0.01 µM) of 0.333 and a relative viability ([3]; first compound 0.03162 µM) of 0.331. The relative viability ([3]; first compound 0.1 µM) was 0.296, the relative viability ([3]; first compound 0.3162 µM) was 0.252 and the relative viability ([3]; first compound 1 µM) was 0.19. It also gave a relative viability ([4]; first compound 0.01 µM) of 0.549, a relative viability ([4]; first compound 0.03162 µM) of 0.61 and a relative viability ([4]; first compound 0.1 µM) of 0.573. For the same compound, the relative viability ([4]; first compound 0.3162 µM) was 0.531, the relative viability ([4]; first compound 1 µM) was 0.477 and the relative viability ([5]; first compound 0.01 µM) was 0.935. For the same compound, the relative viability ([5]; first compound 0.03162 µM) was 0.739, the relative viability ([5]; first compound 0.1 µM) was 0.597 and the relative viability ([5]; first compound 0.3162 µM) was 0.49. For the same compound, the relative viability ([5]; first compound 1 µM) was 0.426, the relative viability ([6]; first compound 0.01 µM) was 0.949 and the relative viability ([6]; first compound 0.03162 µM) was 0.94. It also gave a relative viability ([6]; first compound 0.1 µM) of 1.11, a relative viability ([6]; first compound 0.3162 µM) of 0.916 and a relative viability ([6]; first compound 1 µM) of 0.374. The relative viability ([7]; first compound 0.01 µM) was 0.0576, the relative viability ([7]; first compound 0.03162 µM) was 0.0605 and the relative viability ([7]; first compound 0.1 µM) was 0.0567. For the same compound, the relative viability ([7]; first compound 0.3162 µM) was 0.0462, the relative viability ([7]; first compound 1 µM) was 0.0366 and the relative viability ([8]; first compound 0.01 µM) was 0.624. It also gave a relative viability ([8]; first compound 0.03162 µM) of 0.688, a relative viability ([8]; first compound 0.1 µM) of 0.558 and a relative viability ([8]; first compound 0.3162 µM) of 0.385. The relative viability ([8]; first compound 1 µM) was 0.259, the relative viability ([9]; first compound 0.01 µM) was 0.267 and the relative viability ([9]; first compound 0.03162 µM) was 0.288. It also gave a relative viability ([9]; first compound 0.1 µM) of 0.294, a relative viability ([9]; first compound 0.3162 µM) of 0.275 and a relative viability ([9]; first compound 1 µM) of 0.271. For the same compound, the relative viability ([10]; first compound 0.01 µM) was 0.211, the relative viability ([10]; first compound 0.03162 µM) was 0.156 and the relative viability ([10]; first compound 0.1 µM) was 0.112. The relative viability ([10]; first compound 0.3162 µM) was 0.124, the relative viability ([10]; first compound 1 µM) was 0.0879 and the relative viability ([11]; first compound 0.01 µM) was 0.3. It also gave a relative viability ([11]; first compound 0.03162 µM) of 0.277, a relative viability ([11]; first compound 0.1 µM) of 0.277 and a relative viability ([11]; first compound 0.3162 µM) of 0.229. For the same compound, the relative viability ([11]; first compound 1 µM) was 0.241, the relative viability ([12]; first compound 0.01 µM) was 1.01 and the relative viability ([12]; first compound 0.03162 µM) was 0.891. The relative viability ([12]; first compound 0.1 µM) was 0.968, the relative viability ([12]; first compound 0.3162 µM) was 0.821 and the relative viability ([12]; first compound 1 µM) was 0.644. The relative viability ([13]; first compound 0.01 µM) was 0.761, the relative viability ([13]; first compound 0.03162 µM) was 0.458 and the relative viability ([13]; first compound 0.1 µM) was 0.421. The relative viability ([13]; first compound 0.3162 µM) was 0.175, the relative viability ([13]; first compound 1 µM) was 0.17 and the relative viability ([14]; first compound 0.01 µM) was 0.34. It also gave a relative viability ([14]; first compound 0.03162 µM) of 0.293, a relative viability ([14]; first compound 0.1 µM) of 0.307 and a relative viability ([14]; first compound 0.3162 µM) of 0.284. For the same compound, the relative viability ([14]; first compound 1 µM) was 0.296, the relative viability ([15]; first compound 0.01 µM) was 0.694 and the relative viability ([15]; first compound 0.03162 µM) was 0.601. It also gave a relative viability ([15]; first compound 0.1 µM) of 0.54, a relative viability ([15]; first compound 0.3162 µM) of 0.28 and a relative viability ([15]; first compound 1 µM) of 0.188. It also gave a relative viability ([16]; first compound 0.01 µM) of 0.626, a relative viability ([16]; first compound 0.03162 µM) of 1.08 and a relative viability ([16]; first compound 0.1 µM) of 1.12. The relative viability ([16]; first compound 0.3162 µM) was 0.859, the relative viability ([16]; first compound 1 µM) was 0.688 and the relative viability ([17]; first compound 0.01 µM) was 0.804. For the same compound, the relative viability ([17]; first compound 0.03162 µM) was 0.902, the relative viability ([17]; first compound 0.1 µM) was 0.757 and the relative viability ([17]; first compound 0.3162 µM) was 0.809. For the same compound, the relative viability ([17]; first compound 1 µM) was 0.606, the relative viability ([18]; first compound 0.01 µM) was 0.484 and the relative viability ([18]; first compound 0.03162 µM) was 0.573. It also gave a relative viability ([18]; first compound 0.1 µM) of 0.54, a relative viability ([18]; first compound 0.3162 µM) of 0.425 and a relative viability ([18]; first compound 1 µM) of 0.393. The relative viability ([19]; first compound 0.01 µM) was 1.16, the relative viability ([19]; first compound 0.03162 µM) was 0.981 and the relative viability ([19]; first compound 0.1 µM) was 1.09. The relative viability ([19]; first compound 0.3162 µM) was 0.612, the relative viability ([19]; first compound 1 µM) was 0.226 and the relative viability ([20]; first compound 0.01 µM) was 0.718. For the same compound, the relative viability ([20]; first compound 0.03162 µM) was 0.654, the relative viability ([20]; first compound 0.1 µM) was 0.714 and the relative viability ([20]; first compound 0.3162 µM) was 0.66. It also gave a relative viability ([20]; first compound 1 µM) of 0.692, a relative viability ([21]; first compound 0.01 µM) of 0.434 and a relative viability ([21]; first compound 0.03162 µM) of 0.412. For the same compound, the relative viability ([21]; first compound 0.1 µM) was 0.346, the relative viability ([21]; first compound 0.3162 µM) was 0.264 and the relative viability ([21]; first compound 1 µM) was 0.217.
